“Also recorded” adds a separate entry of the source.
What was measured:
[1] = system: MC38 colon cancer cells; assay: MC38 colon tumor growth (tumor volume) in C57BL/6 mice; assay type: in vivo
Protocol: Tumor volumes were measured and plotted. (B) MC38 colon cancer cells were injected subcutaneously into the right flank of C57BL/6 mice. After seven days when tumors became palpable, one group was treated with 5-HTR7 antagonist SB-269970 (n=6 mice; 3 mg/kg/day) or left untreated (n=6 mice). Tumor volume was measured and plotted. (C) After seven days of the setting of tumor growth, one group was treated with a serotonin transporter blocker (SSRI) sertraline hydrochloride (n=6 mice; 15 mg/kg/week) or left untreated (n=6 mice). Tumor volume was measured and plotted. (D) C57BL/6 mice were given subcutaneously injected MC38 cells. After seven days of tumor growth, one group of mice was treated with different doses of 5-HTR2B antagonist SB-215505 (n=6). Tumor volume was measured and plotted. (E) C57BL/6 mice were given subcutaneously injected MC38 cells. After seven days of the tumor growth, one group of mice was treated with different doses of 5-HTR2B antagonist SB-215505 (n=6), one group treated with 5-HTR2B agonist BW-723C86 (n=6; 4 mg/kg/day). Tumor volume was measured and plotted. (F) MC38 cells were subcutaneously injected into C57BL/6 mice. After seven days when the tumor became palpable in mice, one group of mice was treated with FDA-approved 5-HTR2B antagonist cariprazine (Carispec; Sun pharma) via oral gavage (n=5 mice; dose 5 mg/kg body weight/day) or left untreated (n=5 mice). Tumor growth was measured and plotted. […] All the statistical analysis was performed using Student's ‘t’ test or two-way ANOVA using Sidak's multiple comparison test. *P<0.05; **P<0.01; ***P<0.00; ****P<0.0001 Error bar represents mean±standard error of means (SEM).

[2] = system: PD-L1; assay: Serum PD-L1 ELISA in MC38 tumor-bearing mice; assay type: in vivo, C57BL/6J mice; details: MC38 tumor-bearing mice, 5 mg/kg/day, 14 days after tumor inoculation (FIG. 13F)
Protocol: FIG. 13 depicts 5-HTR2B signaling promotes PD-L1 expression on the MC38 cell line in vitro: (A-B) MC38 cells are treated with 5-HTR2B agonist (BW-723C86-50 μM), serotonin (100 μM), and 5-HTR2B antagonist (RS-127445-50 μM) for 72 hours, and the PD-L1 expression was checked by flow cytometry and the percentage of PD-L1^+ MC38 cells was plotted. (C-D) MFI of PD-L1 from the above experiment were plotted as histogram overlay (C) or as statistical data points (D). (E) Relative PD-L1 mRNA expression in MC38 cells following BW-723C86 and RS-127445 treatment for 48 hours. Here the values are shown as a fold change as compared to control MC38 cells. […] All the statistical analysis was performed using either Student's ‘t’ test or two-way ANOVA using Sidak's multiple comparison test. *P<0.05; **P<0.01; […]; ****P<0.0001 Error bar represents mean±standard error of means (SEM).
Universal competitive serotonin ELISA kit was purchased from Novus biological (Catalog #NBP2-68127), and ELISA was performed according to the manufacturer's protocol. Mouse PD-L1 DuoSet ELISA kit was procured from the R&D System (Catalog #DY1019-05), and the ELISA was performed according to the manufacturer's guidelines.
(§1) To understand it, investigations were done on whether 5-HTR2B signaling also affects the surface expression of molecules that alters inflammatory and cytotoxic immune cells. Among different molecules, PD-L1 is of particular interest as it is an immune checkpoint ligand that affects cytotoxic T-cell responses toward cancer. […] (FIG. 13F).

[3] = system: PD-L1; assay: PD-L1 expression on MC38 cells in vitro (flow cytometry, mRNA); assay type: cell-based, mouse; details: BW-723C86 50 μM, serotonin 100 μM, RS-127445 50 μM, 72 hours (mRNA 48 hours) (FIG. 13A-E)
Protocol: FIG. 13 depicts 5-HTR2B signaling promotes PD-L1 expression on the MC38 cell line in vitro: (A-B) MC38 cells are treated with 5-HTR2B agonist (BW-723C86-50 μM), serotonin (100 μM), and 5-HTR2B antagonist (RS-127445-50 μM) for 72 hours, and the PD-L1 expression was checked by flow cytometry and the percentage of PD-L1^+ MC38 cells was plotted. (C-D) MFI of PD-L1 from the above experiment were plotted as histogram overlay (C) or as statistical data points (D). (E) Relative PD-L1 mRNA expression in MC38 cells following BW-723C86 and RS-127445 treatment for 48 hours. Here the values are shown as a fold change as compared to control MC38 cells. (F) Serum PD-L1 level was measured by ELISA of naïve C57BL/6J mice, control MC38 tumor-bearing mice, BW-723C86 (5 mg/kg/day) treated MC38 tumor-bearing mice and RS-127445 (5 mg/kg/day) treated MC38 tumor-bearing mice after 14 days of tumor inoculation. All the statistical analysis was performed using either Student's ‘t’ test or two-way ANOVA using Sidak's multiple comparison test. *P<0.05; **P<0.01; […]; ****P<0.0001 Error bar represents mean±standard error of means (SEM).
as §1

Structure (SMILES) | MC38 tumor growth ([1]; 5-HTR2B agonist 4 mg/kg/day (FIG. 7E)) | circulating free PD-L1 in the serum [2] | expression of PD-L1 in the colon cancer cells [3] | MC38 tumor growth ([1]; 4 mg/kg/day from day 7 after inoculation, vs untreated (FIG. 7A)) | effect in controlling tumor growth compared to SB-215505 ([1]; MC38 tumor, equivalent dose) | tumor growth, combination with 5-Fluorouracil ([1]; RS-127445 2 mg/kg/day + 5-Fluorouracil 10 mg/kg/alternate days, MC38 model (FIG. 16B)) | efficacy of combination with Irinotecan ([1]; RS-127445 2 mg/kg/day + Irinotecan 15 mg/kg/day for 5 days, subcutaneous colon cancer model (FIG. 16D)) | efficacy of combination with Oxaliplatin ([1]; RS-127445 2 mg/kg/day + Oxaliplatin 4 mg/kg/day for 5 days, subcutaneous colon cancer model (FIG. 16C)) | efficacy of combination with trifluorothymidine ([1]; RS-127445 2 mg/kg/day + trifluorothymidine 20 mg/kg/day (FIG. 16E))
CC(N)Cc1c[nH]c2ccc(OCc3cccs3)cc12 (centres unmarked) [BW-723C86] | significantly promotes MC38 tumor growth | increased the circulating free PD-L1 in the serum | increased the expression of PD-L1 | – | – | – | – | – | –
CC(C)c1cc(-c2ccc(F)c3ccccc23)nc(N)n1 [RS-127445] | – | diminished | reduced the expression of PD-L1 | efficiently control the tumor growth; also recorded: potent molecule in reducing the tumor burden | even more potent effect in controlling tumor growth | much better response by reducing tumor growth than any of them alone | significantly enhanced the efficacy of irinotecan or RS-127445 alone | significantly enhanced the efficacy of oxaliplatin or RS-127445 alone | not found any significant alterations in the efficacy
